How the values were obtained:
5HT2 receptors = assay: DOI inhibition study in rats, oral administration of test compound (oral availability); type: in vivo, rat
Description: FIG. 6 provides a graphic summary of the effects of oral administration of 116082 and 116081 in a DOI inhibition study in rats. Values represent the mean±SEMs (n=6/group). #P<0.05 vs. vehicle/vehicle, *P<0.05 vs. vehicle/DOI, Student t-test.
Based upon the in vivo data developed, oral bioavailability of compounds […] was considered. The compounds were administered by oral gavage at a dose of 50 mg/kg, 30 min prior to DOI in rats (see Example 11A, supra). Animals were placed in the locomotor activity cages 10 min after DOI administration and activity was measured for 10 min. Results, presented in FIG. 6, provide total activity counts over the 10 min of exposure to the locomotor activity apparatus.

[1] = type: in vivo, rat (male Sprague-Dawley)
Description: FIG. 7 provides a graphic summary of the reversal of MK-801-induced hyperactivity using 116081 (7A) and clozapine (7B). […] 116081 produced a significant reversal of the effect of MK-801 at a dose of 25 μmol/kg (10 mg/kg). Results are presented as total activity counts over the 120 min of exposure to the locomotor activity apparatus after administration of MK-801. Data (mean±SEM) were analyzed by ANOVA followed by Dunnett's test (n=6-8/group).
Because part of the symptomatology of schizophrenia may be related to altered glutamate transmission at the NMDA receptor, the reversal of MK-801-induced hyperlocomotor activity in rodents has been used routinely as an animal model for detecting potential antipsychotic activity (O'Neill et al., Pharmacology Biochem. Behav., 63: 237-243, 1999). Thus, this test was used to determine potential antipsychotic properties of 116081 in vivo.
Motor activity was assessed using automated locomotor activity cages as described above (Example 11(A), supra.). Male Sprague-Dawley rats (250-350 g body weight) were administered test compounds (i.p.) and placed in the locomotor activity cages for 30 min of habituation. Following habituation,animals were administered MK-801 (0.5 μmol/kg=0.17 mg/kg, s.c.) and then immediately placed back into the locomotor activity cages, and activity was measured for 120 min. A reversal of MK-801-induced motor activity (as shown by a significant […] of ambulation) in rats is considered to be predictive of the ability of the test compound to reverse psychotic symptoms.

With `Cn1cc(Br)c(-c2cccc(NC(=O)Nc3ccc(Cl)cc3)c2)n1` [Compound 116081, N-[3-(4-bromo-1-methylpyrazol-3-yl)phenyl][(4-chlorophenyl)amino]carboxamide] the “oral efficacy compared with intraperitoneal administration” value (5HT2 receptors; 50 mg/kg oral vs 10 mg/kg i.p.) was “as efficacious as a 10 mg/kg dose of the same compounds administered intraperitoneally”, the “reversal of DOI-induced motor dysfunction, oral” value (5HT2 receptors; oral gavage 50 mg/kg, 30 min prior to DOI) was “reversed DOI-induced motor dysfunction in rats” and the oral activity (5HT2 receptors; rat, DOI test, 50 mg/kg oral) was “orally active”. The “efficacy in reversing motor activity induced by MK-801, compared with clozapine” value ([1]; FIGS. 7A and 7B) was “equiefficacious to the atypical antipsychotic clozapine” and the “attenuation of MK-801-induced hyperactivity (ambulations)” value ([1]; i.p., total activity counts over 120 min after MK-801) was “dose-dependently attenuated MK801-induced hyperactivity”.

From patent publication US6150393A (priority 1999, dated 2000)
